Data on 23 compounds can be found in patent US10301267B2, “Compounds” (AstraZeneca AB, priority 2006, dated 2019).

pIC50: −log10 of the molar value.

Broadly, the pIC50 is the IC50 on a negative log10 scale, so that one unit is a factor of ten.

Sequence of FGFR1 active kinase (P11362 22-822): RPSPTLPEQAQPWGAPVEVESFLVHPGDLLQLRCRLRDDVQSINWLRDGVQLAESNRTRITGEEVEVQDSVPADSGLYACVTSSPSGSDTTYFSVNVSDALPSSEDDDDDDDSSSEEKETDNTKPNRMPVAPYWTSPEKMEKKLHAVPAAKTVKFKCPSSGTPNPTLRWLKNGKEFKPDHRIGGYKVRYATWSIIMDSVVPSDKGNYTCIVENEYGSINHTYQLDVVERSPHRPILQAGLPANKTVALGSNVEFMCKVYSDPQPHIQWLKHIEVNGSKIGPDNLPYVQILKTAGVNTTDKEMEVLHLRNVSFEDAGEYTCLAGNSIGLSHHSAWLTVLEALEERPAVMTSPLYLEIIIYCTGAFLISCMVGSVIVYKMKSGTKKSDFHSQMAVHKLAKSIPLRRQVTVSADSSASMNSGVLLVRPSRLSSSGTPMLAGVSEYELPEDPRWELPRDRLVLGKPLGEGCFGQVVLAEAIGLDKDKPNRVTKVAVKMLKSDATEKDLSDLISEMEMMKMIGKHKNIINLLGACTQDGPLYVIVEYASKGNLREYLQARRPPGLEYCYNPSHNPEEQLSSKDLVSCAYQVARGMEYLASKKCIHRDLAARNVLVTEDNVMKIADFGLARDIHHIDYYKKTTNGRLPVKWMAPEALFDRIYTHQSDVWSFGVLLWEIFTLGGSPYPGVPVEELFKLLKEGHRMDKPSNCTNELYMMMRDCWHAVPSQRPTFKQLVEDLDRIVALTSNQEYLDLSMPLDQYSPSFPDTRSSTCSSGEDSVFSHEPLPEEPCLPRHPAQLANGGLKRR

The experiment addresses FGFR1 active kinase (Homo sapiens, UniProt P11362). The experiment in a line: FGFR Kinase assay - Caliper Echo Dosing. Type of experiment: biochemical. The settings on record: FGFR1 7.2 nM, 408 uM ATP, acoustic dosing; geometric mean of n. As for the experimental part: FGFR Kinase Assay—Caliper Echo Dosing
To determine inhibition of FGFR activity, kinase assays were conducted using Caliper technology.
Kinase activity assays were performed in Greiner 384-well low volume plates, with a total reaction volume of 12 ul per well. Final concentration of FGFR1 active kinase in each reaction well was 7.2 nM. The substrate for each assay was a custom peptide with fluorescent tag (13 amino acids in length, […] with the fluorescene tag on the first K).
Compounds were dispensed directly in to assay plates using a Labcyte Echo 550 acoustic droplet ejection unit. Each well received 120 nl of DMSO containing compound such that the final concentration of compound in the assay prior to the addition of the stop solution ranged between 30 uM and 30 pM. In addition to compounds each plate carried maximum and minimum control wells, the max wells contained 120 nl of DMSO and the min wells contained 120 nl of 10 mM staurosporine (LC Laboratories, MA 01801, USA Catalogue No. S-9300). The Enzyme (at 7.2 nM [final]) and Substrate (at 3.6 uM [final]) were added separately to the compound plates, in reaction buffer [comprising: 50 mM MOPS (Sigma, Catalogue No. M1254)—pH 6.5, 0.004% Triton (Sigma, Catalogue No. X-100), 2.4 mM DTT, 12 mM MgCl2, 408 uM ATP] resulting in a final DMSO concentration in the reaction mix of 1%.
Assay plates were incubated at room temperature for 1.5 h, before the reaction was stopped with the addition of buffer [comprising: 100 mM HEPES—pH7.5, 0.033% Brij-35 (Sigma Catalogue No. B4184), 0.22% Caliper Coating Reagent #3 (Caliper Life Sciences Catalogue No. 760050), 88 mM EDTA, 5% DMSO]. Stopped assay plates were then read using the Caliper LabChip® LC3000 (which uses microfludics to measure a shift in mobility between fluorescent labelled peptide and the FGFR1 kinase—phosphorylated form of this peptide).
In the assay, compounds were tested at a range of concentrations. […] Percentage inhibition at 1 uM, as expressed herein, is a calculated value based on the curve fit that was generated experimentally. From the fitted curve plot, the effect of compound at a concentration of 1 uM was calculated as a percentage inhibition. The IC50 is the concentration of compound, which inhibits FGFR1 kinase activity by 50% in the context of this assay. This value is calculated using a standard curve fitting software package Origin™.
The compound `CNC1CCN(c2cnc(C(=O)Nc3cc(CCc4cc(OC)cc(OC)c4)n[nH]3)cn2)C1` (centres unmarked) [Example 161, N-[5-[2-(3,5-dimethoxyphenyl)ethyl]-2H-pyrazol-3-yl]-5-(3-methylaminopyrrolidin-1-yl)pyrazine-2-carboxamide] showed a pIC50 of 8.52.

Consider `CCN1CCCN(c2cnc(C(=O)Nc3cc(CCc4cc(OC)cc(OC)c4)n[nH]3)cn2)CC1` [Example 169, N-[5-[2-(3,5-dimethoxyphenyl)ethyl]-2H-pyrazol-3-yl]-5-(4-ethyl-1,4-diazepan-1-yl)pyrazine-2-carboxamide], for which the negative logarithm of the IC50 (pIC50) is 8.57.

`COc1cc(COc2cc(NC(=O)c3ccc(N4C[C@@H](C)N[C@@H](C)C4)s3)[nH]n2)cc(OC)c1` [Example 147, N-[5-[(3,5-dimethoxyphenyl)methoxy]-2H-pyrazol-3-yl]-5-[(3S,5R)-3,5-dimethylpiperazin-1-yl]thiophene-2-carboxamide] showed a pIC50 of 8.74.

`CNC(=O)c1cccc(CCc2cc(NC(=O)c3ccc(N4CCN(C)CC4)cc3)[nH]n2)c1` [Example 178, N-[5-[2-[3-(methylcarbamoyl)phenyl]ethyl]-2H-pyrazol-3-yl]-4-(4-methylpiperazin-1-yl)benzamide]: the negative-log IC50 (pIC50) was 8.96.

Turning to `COc1cc(CCc2cc(NC(=O)c3cnc(N4CCN5CCCCC5C4)nc3)[nH]n2)cc(OC)c1` (centres unmarked) [Example 127, 2-(1,3,4,6,7,8,9,9a-octahydropyrido[2,1-c]pyrazin-2-yl)-N-[5-[2-(3,5-dimethoxyphenyl)ethyl]-2H-pyrazol-3-yl]pyrimidine-5-carboxamide], the negative-log IC50 (pIC50) was 8.54.

`COc1cc(COc2cc(NC(=O)c3cnc(N4CCN5CCCCC5C4)cn3)[nH]n2)cc(OC)c1` (centres unmarked) [Example 115, 5-(1,3,4,6,7,8,9,9a-Octahydropyrido[2,1-c]pyrazin-2-yl)-N-[5-[(3,5-dimethoxyphenyl)methoxy]-2H-pyrazol-3-yl]pyrazine-2-carboxamide] showed a pIC50 of 8.64. The pIC50 values of the last two compounds are within 0.2 log units of each other.

Regarding `COc1cc(CCc2cc(NC(=O)c3cnc(N4CCCN(C5CC5)CC4)cn3)[nH]n2)cc(OC)c1` [Example 174, 5-(4-cyclopropyl-1,4-diazepan-1-yl)-N-[5-[2-(3,5-dimethoxyphenyl)ethyl]-2H-pyrazol-3-yl]pyrazine-2-carboxamide], the negative logarithm of the IC50 (pIC50) was 8.43.

The compound `CCN1CCCN(c2ccc(C(=O)Nc3cc(CCc4cc(OC)cc(OC)c4)n[nH]3)cc2)CC1` [Example 170, N-[5-[2-(3,5-dimethoxyphenyl)ethyl]-2H-pyrazol-3-yl]-4-(4-ethyl-1,4-diazepan-1-yl)benzamide] showed a pIC50 of 9.15.

Consider `COCCN1CCC(c2ccc(C(=O)Nc3cc(CCc4cc(OC)cc(OC)c4)n[nH]3)cc2)CC1` [Example 148, N-[5-[2-(3,5-dimethoxyphenyl)ethyl]-2H-pyrazol-3-yl]-4-[1-(2-methoxyethyl)piperidin-4-yl]benzamide], for which the negative-log IC50 (pIC50) was 9.06.

With `COc1cc(CCc2cc(NC(=O)c3ccc(N4CCCN(C(C)C)CC4)cc3)[nH]n2)cc(OC)c1` [Example 166, N-[5-[2-(3,5-dimethoxyphenyl)ethyl]-2H-pyrazol-3-yl]-4-(4-propan-2-yl-1,4-diazepan-1-yl)benzamide], the negative-log IC50 (pIC50) was 9.15.

As for `COc1cc(COc2cc(NC(=O)c3cnc(N4CCN(C)C(C)C4)nc3)[nH]n2)cc(OC)c1` (centres unmarked) [Example 132, N-[5-[(3,5-dimethoxyphenyl)methoxy]-2H-pyrazol-3-yl]-2-(3,4-dimethylpiperazin-1-yl)pyrimidine-5-carboxamide], the negative logarithm of the IC50 (pIC50) was 8.44.

`COc1cc(CCc2cc(NC(=O)c3ccc(N4CCN(C)CC4)s3)[nH]n2)cc(OC)c1` [Example 106, N-[5-[2-(3,5-dimethoxyphenyl)ethyl]-2H-pyrazol-3-yl]-5-(4-methylpiperazin-1-yl)thiophene-2-carboxamide] had a pIC50 of 9.00.

As to `COc1cc(CCc2cc(NC(=O)c3cnc(N4CCCN(C5CC5)CC4)nc3)[nH]n2)cc(OC)c1` [Example 177, 2-(4-cyclopropyl-1,4-diazepan-1-yl)-N-[5-[2-(3,5-dimethoxyphenyl)ethyl]-2H-pyrazol-3-yl]pyrimidine-5-carboxamide], the pIC50 is 8.14.

`COc1cc(CCc2cc(NC(=O)c3cnc(N4C[C@@H](C)N(CC#N)[C@@H](C)C4)cn3)[nH]n2)cc(OC)c1` [Example 129, 5-[(3R,5S)-4-(cyanomethyl)-3,5-dimethylpiperazin-1-yl]-N-[5-[2-(3,5-dimethoxyphenyl)ethyl]-2H-pyrazol-3-yl]pyrazine-2-carboxamide] showed a negative logarithm of the IC50 (pIC50) of 8.46.

As to `COc1cc(COc2cc(NC(=O)c3ccc(N4CCN5CCCC5C4)s3)[nH]n2)cc(OC)c1` (centres unmarked) [Example 121, 5-(3,4,6,7,8,8a-hexahydro-1H-pyrrolo[2,1-c]pyrazin-2-yl)-N-[5-[(3,5-dimethoxyphenyl)methoxy]-2H-pyrazol-3-yl]thiophene-2-carboxamide], the negative-log IC50 (pIC50) was 9.10.

The compound `COc1cc(COc2cc(NC(=O)c3ccc(N4C[C@@H](C)N(C)[C@@H](C)C4)cc3)[nH]n2)cc(OC)c1` [Example 110, N-[5-[(3,5-dimethoxyphenyl)methoxy]-2H-pyrazol-3-yl]-4-[(3R,5S)-3,4,5-trimethylpiperazin-1-yl]benzamide] showed a pIC50 of 9.17.

The compound `COc1cc(CCc2cc(NC(=O)c3cnc(N4CCCN(C(C)C)CC4)nc3)[nH]n2)cc(OC)c1` [Example 173, N-[5-[2-(3,5-dimethoxyphenyl)ethyl]-2H-pyrazol-3-yl]-2-(4-propan-2-yl-1,4-diazepan-1-yl)pyrimidine-5-carboxamide] had a pIC50 of 7.74.

With `COc1cc(COc2cc(NC(=O)c3ccc(N4CCN(C5CCC5)CC4)cc3)[nH]n2)cc(OC)c1` [Example 118, 4-(4-Cyclobutylpiperazin-1-yl)-N-[5-[(3,5-dimethoxyphenyl)methoxy]-2H-pyrazol-3-yl]benzamide], the pIC50 is 8.96.

In the case of `COc1cc(COc2cc(NC(=O)c3cnc(N4CCN(C5CC5)CC4)nc3)[nH]n2)cc(OC)c1` [Example 133, 2-(4-cyclopropylpiperazin-1-yl)-N-[5-[(3,5-dimethoxyphenyl)methoxy]-2H-pyrazol-3-yl]pyrimidine-5-carboxamide], the pIC50 was 8.41.

In turn, `COc1cc(CCc2cc(NC(=O)c3ccc(N4CCCN(C(C)C)CC4)s3)[nH]n2)cc(OC)c1` [Example 168, N-[5-[2-(3,5-dimethoxyphenyl)ethyl]-2H-pyrazol-3-yl]-5-(4-propan-2-yl-1,4-diazepan-1-yl)thiophene-2-carboxamide] showed a negative-log IC50 (pIC50) of 8.82.

With `COc1cc(COc2cc(NC(=O)c3ccc(N4C[C@@H](C)N[C@@H](C)C4)cc3)[nH]n2)cc(OC)c1` [Example 100, N-[5-[(3,5-dimethoxyphenyl)methoxy]-2H-pyrazol-3-yl]-4-[(3R,5S)-3,5-dimethylpiperazin-1-yl]benzamide], the negative-log IC50 (pIC50) is 8.85.

The compound `CCN1CCCN(c2ncc(C(=O)Nc3cc(CCc4cc(OC)cc(OC)c4)n[nH]3)cn2)CC1` [Example 171, N-[5-[2-(3,5-dimethoxyphenyl)ethyl]-2H-pyrazol-3-yl]-2-(4-ethyl-1,4-diazepan-1-yl)pyrimidine-5-carboxamide] showed a pIC50 of 8.04.

Compound `COc1cc(CCc2cc(NC(=O)c3ccc(N4CCCN(C)CC4)s3)[nH]n2)cc(OC)c1` [Example 142, N-[5-[2-(3,5-dimethoxyphenyl)ethyl]-2H-pyrazol-3-yl]-5-(4-methyl-1,4-diazepan-1-yl)thiophene-2-carboxamide] showed a pIC50 of 8.68.
